Assay results: BindingDB's records for doi:10.1016/j.bioorg.2016.01.004 (University of Karachi, 2016)

Legend:
Acetylcholinesterase = Acetylcholinesterase (Electrophorus electricus, UniProt O42275); assay: AChE and BChE Inhibition Activity; details: pH 8
Method: (§1) Inhibitory activities of AChE and BChE were evaluated by using the Ellman's method [34]. […] For initial screening each compound was dissolved in DMSO (end concentration of DMSO was less than 1% in assay) and tested at a final concentration of 0.5 mM. The compounds with considerable inhibition (more than 50%) were subjected to further analysis by making their 8 to 10 serial dilutions in assay buffer (50 mM Tris-HCl, 0.1 M NaCl and 0.02 M MgCl2, pH 8.0). Reaction mixture comprised of 20 µL assay buffer, 10 µL of test compound, 10 µL of 0.031 U/mL of enzyme (0.5 and 3.4 U/mg of AChE or BuChE respectively). This mixture was incubated at 25 °C for 10 min. After this preincubation, enzymatic reaction was started by addition of 10 µL of 1 mM acetylethiocholine iodide or butyrylthiocholine chloride (depending on the enzyme) and the mixture was incubated again for 15 min. The amount of enzymatic product was esti

[1] = biological target: Carboxylic ester hydrolase (Equus caballus, UniProt Q9N1N9); assay: AChE and BChE Inhibition Activity; details: pH 8
Carboxylic ester hydrolase, sequence (Q9N1N9 whole entry): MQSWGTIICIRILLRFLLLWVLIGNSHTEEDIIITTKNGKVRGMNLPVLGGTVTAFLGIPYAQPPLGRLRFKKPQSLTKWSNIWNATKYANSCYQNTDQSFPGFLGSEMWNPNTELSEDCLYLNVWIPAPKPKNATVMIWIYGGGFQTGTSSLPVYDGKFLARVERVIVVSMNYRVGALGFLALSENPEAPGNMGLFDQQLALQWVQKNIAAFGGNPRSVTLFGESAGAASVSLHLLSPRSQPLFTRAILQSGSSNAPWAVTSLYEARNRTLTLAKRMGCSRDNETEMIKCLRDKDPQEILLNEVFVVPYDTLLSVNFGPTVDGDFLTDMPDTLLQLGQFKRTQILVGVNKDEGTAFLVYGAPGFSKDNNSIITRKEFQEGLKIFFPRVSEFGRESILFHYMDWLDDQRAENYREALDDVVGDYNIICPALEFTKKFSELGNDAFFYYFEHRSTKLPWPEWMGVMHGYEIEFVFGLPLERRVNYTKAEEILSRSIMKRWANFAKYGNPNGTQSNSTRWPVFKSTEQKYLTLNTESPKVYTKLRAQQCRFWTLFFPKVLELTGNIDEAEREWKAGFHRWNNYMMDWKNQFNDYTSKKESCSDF
Method: as §1

Acetylcholinesterase, sequence (O42275 whole entry): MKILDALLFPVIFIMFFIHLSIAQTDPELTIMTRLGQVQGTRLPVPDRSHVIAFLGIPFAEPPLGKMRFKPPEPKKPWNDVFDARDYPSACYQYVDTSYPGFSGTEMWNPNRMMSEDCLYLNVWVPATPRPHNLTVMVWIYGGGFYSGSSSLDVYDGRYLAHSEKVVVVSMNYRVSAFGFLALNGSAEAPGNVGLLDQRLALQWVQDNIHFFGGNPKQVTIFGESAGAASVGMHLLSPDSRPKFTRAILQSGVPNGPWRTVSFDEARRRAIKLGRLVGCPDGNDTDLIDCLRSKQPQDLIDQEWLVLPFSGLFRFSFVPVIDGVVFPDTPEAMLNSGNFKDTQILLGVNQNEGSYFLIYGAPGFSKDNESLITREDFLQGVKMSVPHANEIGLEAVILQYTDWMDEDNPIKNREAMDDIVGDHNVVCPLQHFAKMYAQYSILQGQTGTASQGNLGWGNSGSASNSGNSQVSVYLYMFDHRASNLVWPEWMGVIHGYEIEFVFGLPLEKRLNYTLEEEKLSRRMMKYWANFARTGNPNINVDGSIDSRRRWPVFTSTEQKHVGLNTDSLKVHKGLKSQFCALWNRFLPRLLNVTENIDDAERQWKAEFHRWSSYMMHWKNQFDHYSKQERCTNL

Cc1ccc(C2=C(C#N)C(=C(C#N)c3nnn[nH]3)NC(C)(c3ccc(C)cc3)C2)cc1 (centres undefined) [2-(Cyano(1H-tetrazol-5-yl)methylene)-6-methyl-4,6-bis(4'/4''-methylphenyl)-1,2,5,6-tetrahydronicotinonitrile (2b)]
IC50 (Acetylcholinesterase): 4.45 µM
IC50 [1]: 5.87 µM

COc1ccccc1C1=C(C#N)C(=C(C#N)c2nnn[nH]2)NC(C)(c2ccccc2OC)C1 (centres undefined) [2-(Cyano(1H-tetrazol-5-yl)methylene)-6-methyl-4,6-bis(2'/2''-methoxyphenyl)-1,2,5,6-tetrahydronicotinonitrile (2g)]
IC50 (Acetylcholinesterase): 20.3 µM
IC50 [1]: 0.29 µM

CC1(c2ccc(O)cc2)CC(c2ccc(O)cc2)=C(C#N)C(=C(C#N)C#N)N1 (centres undefined) [2-[3-cyano-4,6-bis(4-hydroxyphenyl)-6-methyl-1,2,5,6-tetrahydropyridin-2-ylidene]propanedinitrile (5h)]
IC50 (Acetylcholinesterase): 5.38 µM
IC50 [1]: 42.2 µM

CC1(c2ccccc2)CC(c2ccccc2)=C(C#N)C(=C(C#N)C#N)N1 (centres undefined) [2-Dicyanomethylene-6-methyl-4,6-bis(phenyl)-1,2,5,6-tetrahydronicotinonitrile (5a)]
IC50 (Acetylcholinesterase): 20.3 µM
IC50 [1]: 48.1 µM

COc1cccc(C2=C(C#N)C(=C(C#N)c3nnn[nH]3)NC(C)(c3cccc(OC)c3)C2)c1 (centres undefined) [2-(Cyano(1H-tetrazol-5-yl)methylene)-6-methyl-4,6-bis(3'/3''-methoxyphenyl)-1,2,5,6-tetrahydronicotinonitrile (2f)]
IC50 (Acetylcholinesterase): 5.11 µM
IC50 [1]: 39.2 µM

CC1(c2ccc(O)cc2)CC(c2ccc(O)cc2)=C(C#N)C(=C(C#N)c2nnn[nH]2)N1 (centres undefined) [2-(Cyano(1H-tetrazol-5-yl)methylene)-6-methyl-4,6-bis(4'/4''-hydroxyphenyl)-1,2,5,6-tetrahydronicotinonitrile (2h)]
IC50 (Acetylcholinesterase): 7.42 µM
IC50 [1]: 2.45 µM

Cc1cccc(C2=C(C#N)C(=C(C#N)c3nnn[nH]3)NC(C)(c3cccc(C)c3)C2)c1 (centres undefined) [2-(Cyano(1H-tetrazol-5-yl)methylene)-6-methyl-4,6-bis(3'/3''-methylphenyl)-1,2,5,6-tetrahydronicotinonitrile (2c)]
IC50 (Acetylcholinesterase): 20.8 µM
IC50 [1]: 62.2 µM

CC1(c2cccc(Cl)c2)CC(c2cccc(Cl)c2)=C(C#N)C(=C(C#N)c2nnn[nH]2)N1 (centres undefined) [2-(Cyano(1H-tetrazol-5-yl)methylene)-6-methyl-4,6-bis(3'/3''-chlorophenyl)-1,2,5,6-tetrahydronicotinonitrile (2e)]
IC50 (Acetylcholinesterase): 2.32 µM
IC50 [1]: 2.78 µM

Cc1ccc(C2=C(C#N)C(=C(C#N)C#N)NC(C)(c3ccc(C)cc3)C2)cc1 (centres undefined) [2-[3-cyano-6-methyl-4,6-bis(4-methylphenyl)-1,2,5,6-tetrahydropyridin-2-ylidene]propanedinitrile (5b)]
IC50 (Acetylcholinesterase): 16.9 µM
IC50 [1]: 36.5 µM

COc1cccc(C2=C(C#N)C(=C(C#N)C#N)NC(C)(c3cccc(OC)c3)C2)c1 (centres undefined) [2-[3-cyano-4,6-bis(3-methoxyphenyl)-6-methyl-1,2,5,6-tetrahydropyridin-2-ylidene]propanedinitrile (5g)]
IC50 (Acetylcholinesterase): 1.56 µM
IC50 [1]: 48.2 µM

CC1(c2ccc(F)cc2)CC(c2ccc(F)cc2)=C(C#N)C(=C(C#N)C#N)N1 (centres undefined) [2-[3-cyano-4,6-bis(4-fluorophenyl)-6-methyl-1,2,5,6-tetrahydropyridin-2-ylidene]propanedinitrile (5d)]
IC50 (Acetylcholinesterase): 11.9 µM
IC50 [1]: 55.2 µM

CC1(c2ccc(F)cc2)CC(c2ccc(F)cc2)=C(C#N)C(=C(C#N)c2nnn[nH]2)N1 (centres undefined) [2-(Cyano(1H-tetrazol-5-yl)methylene)-6-methyl-4,6-bis(4'/4''-fluorophenyl)-1,2,5,6-tetrahydronicotinonitrile (2d)]
IC50 (Acetylcholinesterase): 2.01 µM
IC50 [1]: 38.8 µM

Cc1cccc(C2=C(C#N)C(=C(C#N)C#N)NC(C)(c3cccc(C)c3)C2)c1 (centres undefined) [2-[3-cyano-6-methyl-4,6-bis(3-methylphenyl)-1,2,5,6-tetrahydropyridin-2-ylidene]propanedinitrile (5c)]
IC50 (Acetylcholinesterase): 5.21 µM
IC50 [1]: 35.9 µM

CC1(c2ccc(I)cc2)CC(c2ccc(I)cc2)=C(C#N)C(=C(C#N)C#N)N1 (centres undefined) [2-[3-cyano-4,6-bis(4-iodophenyl)-6-methyl-1,2,5,6-tetrahydropyridin-2-ylidene]propanedinitrile (5e)]
IC50 (Acetylcholinesterase): 11.2 µM
IC50 [1]: 45.3 µM

CC1(c2ccccc2)CC(c2ccccc2)=C(C#N)C(=C(C#N)c2nnn[nH]2)N1 (centres undefined) [2-(Cyano(1H-tetrazol-5-yl)methylene)-6-methyl-4,6-bis(phenyl)-1,2,5,6-tetrahydronicotinonitrile (2a)]
IC50 (Acetylcholinesterase): 7.02 µM
IC50 [1]: 22.1 µM

CN(C)C(=O)Oc1cccc([N+](C)(C)C)c1 [m-Trimethylammoniumphenyldimethylcarbamate]
IC50 (Acetylcholinesterase): 19.3 µM
IC50 [1]: 43.2 µM

CC1(c2cccc(F)c2)CC(c2cccc(F)c2)=C(C#N)C(=C(C#N)C#N)N1 (centres undefined) [2-[3-cyano-4,6-bis(3-fluorophenyl)-6-methyl-1,2,5,6-tetrahydropyridin-2-ylidene]propanedinitrile (5f)]
IC50 (Acetylcholinesterase): 8.01 µM
IC50 [1]: 68.8 µM
